Data as given in patent publication US8569344B2, “N-piperidinyl acetamide derivatives as calcium channel blockers” (Zalicus Pharmaceuticals Ltd., priority 2008, dated 2013).

Assays:
[1] = molecular target: T1, human α1G T-type channels (Homo sapiens, UniProt O43497); assay: T-type calcium channel block, whole cell patch clamp in HEK cells (α1G); format: cell-based; conditions: HEK cells, patch clamp, mainly non-inactivated protocol; values above 10 μM shown as 10 μM, below 0.30 μM shown as 0.30 μM; read-out: T-type Calcium Channel Block α1G IC50
T1 construct: expressed in transfected cells; host or cells: HEK 293
T1 sequence (O43497 whole entry): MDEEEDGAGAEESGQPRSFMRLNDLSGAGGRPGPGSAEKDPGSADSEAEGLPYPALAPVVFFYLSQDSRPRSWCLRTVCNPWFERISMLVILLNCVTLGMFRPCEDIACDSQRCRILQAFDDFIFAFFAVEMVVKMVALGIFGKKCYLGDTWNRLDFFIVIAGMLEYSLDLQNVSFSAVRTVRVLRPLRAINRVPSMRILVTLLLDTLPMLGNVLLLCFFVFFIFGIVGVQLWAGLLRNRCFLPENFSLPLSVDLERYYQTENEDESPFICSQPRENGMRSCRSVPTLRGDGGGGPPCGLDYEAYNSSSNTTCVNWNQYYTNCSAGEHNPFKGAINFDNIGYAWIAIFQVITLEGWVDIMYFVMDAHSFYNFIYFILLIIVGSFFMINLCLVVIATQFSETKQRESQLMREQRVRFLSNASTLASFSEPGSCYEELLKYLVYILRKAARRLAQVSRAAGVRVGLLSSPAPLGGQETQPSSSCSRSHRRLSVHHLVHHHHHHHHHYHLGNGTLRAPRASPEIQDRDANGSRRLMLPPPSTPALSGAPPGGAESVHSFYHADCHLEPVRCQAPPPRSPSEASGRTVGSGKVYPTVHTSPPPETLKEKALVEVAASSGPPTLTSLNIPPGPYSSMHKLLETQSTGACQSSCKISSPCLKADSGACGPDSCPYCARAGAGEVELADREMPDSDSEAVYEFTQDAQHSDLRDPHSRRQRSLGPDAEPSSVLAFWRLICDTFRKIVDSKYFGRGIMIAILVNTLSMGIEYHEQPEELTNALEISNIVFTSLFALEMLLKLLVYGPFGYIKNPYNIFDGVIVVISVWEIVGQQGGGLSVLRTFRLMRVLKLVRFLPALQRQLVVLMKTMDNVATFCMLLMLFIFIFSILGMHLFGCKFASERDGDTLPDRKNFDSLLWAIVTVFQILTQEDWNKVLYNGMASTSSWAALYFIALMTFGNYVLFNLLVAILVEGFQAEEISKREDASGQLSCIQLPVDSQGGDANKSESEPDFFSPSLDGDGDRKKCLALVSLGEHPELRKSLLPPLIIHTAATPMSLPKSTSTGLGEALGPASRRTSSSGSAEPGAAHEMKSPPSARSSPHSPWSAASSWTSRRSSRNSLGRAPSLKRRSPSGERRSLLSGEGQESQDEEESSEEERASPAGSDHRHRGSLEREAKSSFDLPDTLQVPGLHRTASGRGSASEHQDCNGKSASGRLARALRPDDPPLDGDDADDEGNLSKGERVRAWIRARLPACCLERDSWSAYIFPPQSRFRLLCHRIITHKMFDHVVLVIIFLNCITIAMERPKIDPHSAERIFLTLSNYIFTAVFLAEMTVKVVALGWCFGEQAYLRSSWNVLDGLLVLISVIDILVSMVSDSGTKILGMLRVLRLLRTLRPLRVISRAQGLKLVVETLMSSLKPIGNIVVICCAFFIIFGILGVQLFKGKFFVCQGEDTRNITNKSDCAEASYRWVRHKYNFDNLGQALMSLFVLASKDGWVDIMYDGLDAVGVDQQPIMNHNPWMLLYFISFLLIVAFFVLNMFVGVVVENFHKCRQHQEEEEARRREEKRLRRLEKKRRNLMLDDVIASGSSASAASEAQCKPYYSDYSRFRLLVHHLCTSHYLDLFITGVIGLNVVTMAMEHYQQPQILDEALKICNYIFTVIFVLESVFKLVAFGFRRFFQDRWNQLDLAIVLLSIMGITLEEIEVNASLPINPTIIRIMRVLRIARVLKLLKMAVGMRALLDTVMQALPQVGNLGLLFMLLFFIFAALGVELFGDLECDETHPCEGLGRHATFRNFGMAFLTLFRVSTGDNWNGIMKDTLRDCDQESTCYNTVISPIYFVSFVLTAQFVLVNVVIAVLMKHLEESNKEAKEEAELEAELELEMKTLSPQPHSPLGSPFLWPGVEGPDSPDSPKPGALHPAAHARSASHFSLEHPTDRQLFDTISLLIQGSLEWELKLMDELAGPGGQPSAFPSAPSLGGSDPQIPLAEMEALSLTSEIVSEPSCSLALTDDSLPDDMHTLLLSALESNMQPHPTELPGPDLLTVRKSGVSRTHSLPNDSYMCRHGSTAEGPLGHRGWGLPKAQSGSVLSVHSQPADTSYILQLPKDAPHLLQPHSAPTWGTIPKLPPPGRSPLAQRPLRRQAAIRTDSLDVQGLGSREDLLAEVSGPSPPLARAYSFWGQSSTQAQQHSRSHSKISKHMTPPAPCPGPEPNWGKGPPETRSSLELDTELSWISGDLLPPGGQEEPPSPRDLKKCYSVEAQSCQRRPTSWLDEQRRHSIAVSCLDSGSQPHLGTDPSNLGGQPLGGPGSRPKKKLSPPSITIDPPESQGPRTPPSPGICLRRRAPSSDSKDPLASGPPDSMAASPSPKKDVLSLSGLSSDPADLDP

[2] = molecular target: T2, human α1H T-type channels (Homo sapiens, UniProt O95180); assay: T-type calcium channel block, whole cell patch clamp in HEK cells (α1H); format: cell-based; conditions: HEK cells, patch clamp, mainly non-inactivated protocol; values above 10 μM shown as 10 μM; read-out: T-type Calcium Channel Block α1H IC50
T2 construct: expressed in transfected cells; host or cells: HEK 293
T2 sequence (O95180 whole entry): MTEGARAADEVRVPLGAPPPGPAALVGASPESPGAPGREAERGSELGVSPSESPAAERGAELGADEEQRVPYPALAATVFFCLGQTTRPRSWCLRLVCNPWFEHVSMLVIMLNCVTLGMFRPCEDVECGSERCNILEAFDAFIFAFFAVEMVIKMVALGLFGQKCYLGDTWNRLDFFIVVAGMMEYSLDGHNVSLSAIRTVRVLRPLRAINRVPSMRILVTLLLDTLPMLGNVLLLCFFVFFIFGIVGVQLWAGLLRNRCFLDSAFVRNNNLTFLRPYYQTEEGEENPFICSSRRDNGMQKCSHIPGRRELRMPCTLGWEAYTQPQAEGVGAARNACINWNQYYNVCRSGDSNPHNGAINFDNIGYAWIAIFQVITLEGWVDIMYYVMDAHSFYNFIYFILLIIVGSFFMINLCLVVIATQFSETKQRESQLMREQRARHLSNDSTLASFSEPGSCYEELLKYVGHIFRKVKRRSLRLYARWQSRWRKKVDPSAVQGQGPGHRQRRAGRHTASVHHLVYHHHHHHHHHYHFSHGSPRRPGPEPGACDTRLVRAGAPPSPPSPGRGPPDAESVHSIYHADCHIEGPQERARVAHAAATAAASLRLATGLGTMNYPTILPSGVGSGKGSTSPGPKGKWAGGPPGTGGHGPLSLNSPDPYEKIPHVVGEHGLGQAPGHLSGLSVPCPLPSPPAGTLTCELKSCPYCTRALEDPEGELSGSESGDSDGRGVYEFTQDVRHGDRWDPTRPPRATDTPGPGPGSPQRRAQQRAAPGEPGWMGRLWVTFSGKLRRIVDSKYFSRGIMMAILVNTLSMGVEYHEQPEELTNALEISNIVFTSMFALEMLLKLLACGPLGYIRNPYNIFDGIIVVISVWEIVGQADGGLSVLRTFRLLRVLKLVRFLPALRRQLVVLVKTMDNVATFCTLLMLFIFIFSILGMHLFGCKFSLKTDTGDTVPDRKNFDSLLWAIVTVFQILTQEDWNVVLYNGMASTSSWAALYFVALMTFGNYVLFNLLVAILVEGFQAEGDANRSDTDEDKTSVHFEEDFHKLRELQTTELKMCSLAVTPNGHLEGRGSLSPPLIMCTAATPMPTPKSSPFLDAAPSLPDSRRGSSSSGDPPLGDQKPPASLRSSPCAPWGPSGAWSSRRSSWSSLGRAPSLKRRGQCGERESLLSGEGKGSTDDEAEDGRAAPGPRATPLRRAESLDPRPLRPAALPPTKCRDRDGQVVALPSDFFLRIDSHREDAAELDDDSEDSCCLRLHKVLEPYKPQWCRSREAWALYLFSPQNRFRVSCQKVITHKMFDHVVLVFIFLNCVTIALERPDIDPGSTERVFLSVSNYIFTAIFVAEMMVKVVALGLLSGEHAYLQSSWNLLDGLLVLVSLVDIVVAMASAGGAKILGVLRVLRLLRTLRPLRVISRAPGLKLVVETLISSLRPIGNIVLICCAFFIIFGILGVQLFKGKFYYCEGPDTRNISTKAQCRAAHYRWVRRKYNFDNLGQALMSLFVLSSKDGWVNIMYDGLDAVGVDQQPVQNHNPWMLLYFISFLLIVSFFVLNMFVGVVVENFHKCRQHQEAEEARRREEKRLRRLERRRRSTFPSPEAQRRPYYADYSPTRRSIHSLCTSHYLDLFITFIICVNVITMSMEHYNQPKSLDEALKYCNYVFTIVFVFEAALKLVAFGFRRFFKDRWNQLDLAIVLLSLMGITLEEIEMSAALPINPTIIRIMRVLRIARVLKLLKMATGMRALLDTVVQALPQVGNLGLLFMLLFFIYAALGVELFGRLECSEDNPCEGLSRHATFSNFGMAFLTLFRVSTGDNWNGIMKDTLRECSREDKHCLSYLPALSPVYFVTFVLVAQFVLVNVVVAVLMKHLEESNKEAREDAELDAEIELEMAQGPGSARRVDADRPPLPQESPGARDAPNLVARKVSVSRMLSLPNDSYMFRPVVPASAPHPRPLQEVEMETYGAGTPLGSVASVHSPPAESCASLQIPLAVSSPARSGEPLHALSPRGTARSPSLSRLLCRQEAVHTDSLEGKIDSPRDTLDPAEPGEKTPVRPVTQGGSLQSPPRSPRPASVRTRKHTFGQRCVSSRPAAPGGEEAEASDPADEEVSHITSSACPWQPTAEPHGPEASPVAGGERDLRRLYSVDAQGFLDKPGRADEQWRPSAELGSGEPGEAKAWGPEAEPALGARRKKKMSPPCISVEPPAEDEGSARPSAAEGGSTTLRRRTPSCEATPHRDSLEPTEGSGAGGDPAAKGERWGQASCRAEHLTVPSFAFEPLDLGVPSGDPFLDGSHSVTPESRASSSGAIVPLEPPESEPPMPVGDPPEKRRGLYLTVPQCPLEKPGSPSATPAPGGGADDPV

| IC50 [1] | IC50 [2] | Compound |
| --- | --- | --- |
| 1310 nM | 810 nM | CN(CCN1CCC(CNC(=O)c2cc(F)cc(C(F)(F)F)c2)CC1)C(=O)C1(C)CC1 [Compound 518, N-((1-(2-(N,1-dimethylcyclopropanecarboxamido)ethyl)piperidin-4-yl)methyl)-3-fluoro-5-(trifluoromethyl)benzamide] |
| 1600 nM | 1440 nM | CC(C)(C)NC(=O)CN1CCC(CNC(=O)/C=C/c2cc(Cl)cc(Cl)c2)CC1 [Compound 378, (E)-N-((1-(2-(tert-butylamino)-2-oxoethyl)piperidin-4-yl)methyl)-3-(3,5-dichlorophenyl)acrylamide] |
| < 300 nM | 40 nM | Cc1cc(C)cc(C(=O)NCC2CCN(CC(=O)NC(C)(C)C(F)(F)F)CC2)c1 [Compound 454, 3,5-dimethyl-N-((1-(2-oxo-2-(1,1,1-trifluoro-2-methylpropan-2-ylamino)ethyl)piperidin-4-yl)methyl)benzamide] |
| 400 nM | 1300 nM | CC(C)(C)OC(=O)NC(CN1CCC(CC(=O)NCc2cc(Cl)cc(Cl)c2)CC1)C(C)(C)C (stereo not shown) [Compound 198, tert-butyl 1-(4-(2-(3,5-dichloro-benzylamino)-2-oxoethyl)piperidin-1-yl)-3,3-dimethylbutan-2-ylcarbamate] |
| > 10000 nM | > 10000 nM | CC(C)(C)OC(=O)NC(CN1CCC(CC(=O)NCCc2c[nH]c3ccc(F)cc23)CC1)C(C)(C)C (stereo not shown) [Compound 196, tert-butyl 1-(4-(2-(2-(5-fluoro-1H-indol-3-yl)ethylamino)-2-oxoethyl)piperidin-1-yl)-3,3-dimethylbutan-2-ylcarbamate] |
| < 300 nM | 580 nM | O=C(NCC1CCN(C(=O)CNC2CCCCC2)CC1)c1cc(C(F)(F)F)cc(C(F)(F)F)c1 [Compound 249, N-((1-(2-(cyclohexylamino)acetyl)piperidin-4-yl)methyl)-3,5-bis(trifluoromethyl)benzamide] |
| < 300 nM | 50 nM | CN(C(=O)CN1CCC(CNC(=O)c2cc(F)cc(Cl)c2)CC1)C(C)(C)C(F)(F)F [Compound 579, 3-chloro-5-fluoro-N-((1-(2-(methyl (1,1,1-trifluoro-2-methylpropan-2-yl)amino)-2-oxoethyl)piperidin-4-yl)methyl)benzamide] |
| 570 nM | 2340 nM | O=C(NCC1CCN(C(=O)CN2CCCC(C(F)(F)F)C2)CC1)c1cc(C(F)(F)F)cc(C(F)(F)F)c1 (stereo not shown) [Compound 255, 3,5-bis(trifluoromethyl)-N-((1-(2-(3-(trifluoromethyl)piperidin-1-yl)acetyl)piperidin-4-yl)methyl)benzamide] |
| 1400 nM | 3140 nM | CCC1CCCCN1CC(=O)N1CCC(CNC(=O)c2cc(F)cc(C(F)(F)F)c2)CC1 (stereo not shown) [Compound 269, N-((1-(2-(2-ethylpiperidin-1-yl)acetyl)piperidin-4-yl)methyl)-3-fluoro-5-(trifluoromethyl)benzamide] |
| < 300 nM | 240 nM | COCC(COC)NC(=O)CN1CCC(CNC(=O)c2cc(C(F)(F)F)cc(C(F)(F)F)c2)CC1 [Compound 347, N-((1-(2-(1,3-dimethoxypropan-2-ylamino)-2-oxoethyl)piperidin-4-yl)methyl)-3,5-bis(trifluoromethyl) benzamide] |
| < 300 nM | 80 nM | CC(C)(C)NC(=O)CN1CCC(CNC(=O)c2cc(Cl)cc(Br)c2)CC1 [Compound 381, 3-bromo-N-((1-(2-(tert-butylamino)-2-oxoethyl)piperidin-4-yl)methyl)-5-chlorobenzamide] |
| 1210 nM | 1980 nM | CC(C)(C)C(=O)NCCN1CCC(CNC(=O)c2cccc(Cl)c2)CC1 [Compound 299, 3-chloro-N-((1-(2-pivalamidoethyl)piperidin-4-yl)methyl)benzamide] |
| 9480 nM | > 10000 nM | CC(C)NC(=O)CN1CCC(CNC(=O)c2cccc(Br)c2)CC1 [Compound 441, 3-bromo-N-((1-(2-(isopropylamino)-2-oxoethyl)piperidin-4-yl)methyl)benzamide] |
| < 300 nM | 740 nM | COc1cc(C(=O)NCC2CCN(CCNS(=O)(=O)C(F)(F)F)CC2)cc(C(F)(F)F)c1 [Compound 327, 3-methoxy-5-(trifluoromethyl)-N-((1-(2-(trifluoromethylsulfonamido)ethyl)piperidin-4-yl)methyl)benzamide] |
| 490 nM | 1560 nM | CC(C)(C)OC(=O)NC1(C(=O)NCCN2CCC(CNC(=O)c3cc(F)cc(C(F)(F)F)c3)CC2)CCC1 [Compound 572, tert-buyl 1-(2-(4-((3-fluoro-5-(trifluoromethyl)benzamido)methyl)piperidin-1-yl)ethylcarbamoyl) cyclobutylcarbamate] |
| 1220 nM | 1350 nM | CC(C)(C)NC(=O)CN1CCC(CNC(=O)Cc2cc(C(F)(F)F)cc(C(F)(F)F)c2)CC1 [Compound 383, 2-(3,5-bis(trifluoromethyl)phenyl)-N-((1-(2-(tert-butylamino)-2-oxoethyl)piperidin-4-yl)methyl)acetamide] |

| IC50 [1] | IC50 [2] | Compound |
| --- | --- | --- |
| 2650 nM | 2840 nM | O=C(CN1CCC(CNC(=O)c2cccc(Cl)c2)CC1)NN1CCCCC1 [Compound 527, 3-chloro-N-((1-(2-oxo-2-(piperidin-1-ylamino)ethyl)piperidin-4-yl)methyl)benzamide] |
| < 300 nM | 140 nM | CN(CCN1CCC(CNC(=O)c2cc(F)cc(C(F)(F)F)c2)CC1)C(=O)C1(C(F)(F)F)CCCC1 [Compound 522, 3-fluoro-N-((1-(2-(N-methyl-1-(trifluoromethyl)cyclopentanecarbox-amido)ethyl)piperidin-4-yl)methyl)-5-(trifluoromethyl)benzamide] |
| < 300 nM | 20 nM | CC(C)(NC(=O)CN1CCC(CNC(=O)c2cccc(Br)c2)CC1)C(F)(F)F [Compound 459, 3-bromo-N-((1-(2-oxo-2-(1,1,1-trifluoro-2-methylpropan-2-ylamino)ethyl)piperidin-4-yl)methyl)benzamide] |
| 4780 nM | 1970 nM | O=C(CC1CCN(C(=O)[C@@H]2CCCCN2)CC1)Nc1cc(C(F)(F)F)cc(C(F)(F)F)c1 [Compound 195, (S)-N-(3,5-bis(trifluoromethyl)phenyl)-2-(1-(piperidine-2-carbonyl)piperidin-4-yl)acetamide] |
| > 10000 nM | > 10000 nM | O=C(NCC1CCN(C(=O)CN2CCC(F)(F)C2)CC1)c1cc(C(F)(F)F)cc(C(F)(F)F)c1 [Compound 226, N-((1-(2-(3,3-difluoropyrrolidin-1-yl)acetyl)piperidin-4-yl)methyl)-3,5-bis(trifluoromethyl)benzamide] |
| > 10000 nM | > 10000 nM | Cc1cc(C)cc(C(=O)NCC2CCN(CC(=O)NC(C)C)CC2)c1 [Compound 436, N-((1-(2-(isopropylamino)-2-oxoethyl)piperidin-4-yl)methyl)-3,5-dimethylbenzamide] |
| < 300 nM | 120 nM | O=C(NCC1CCN(CCNC(=O)C2(C(F)(F)F)CCCC2)CC1)c1cc(C(F)(F)F)cc(C(F)(F)F)c1 [Compound 340, 3,5-bis(trifluoromethyl)-N-((1-(2-(1-(trifluoromethyl)cyclopentanecarbox-amido)ethyl)piperidin-4-yl)methyl) benzamide] |
| < 300 nM | 150 nM | CC(C)S(=O)(=O)NCCN1CCC(CNC(=O)c2cc(Br)cc(Br)c2)CC1 [Compound 319, 3,5-dibromo-N-((1-(2-(1-methylethylsulfonamido)ethyl)piperidin-4-yl)methyl)benzamide] |
| < 300 nM | 180 nM | CC1(NC(=O)CN2CCC(CNC(=O)c3cccc(Br)c3)CC2)CCC1 [Compound 480, 3-bromo-N-((1-(2-(1-methylcyclobutylamino)-2-oxoethyl)piperidin-4-yl)methyl) benzamide] |
| < 300 nM | 80 nM | CC(C)COC(=O)NC1(CN2CCC(CNC(=O)c3cc(C(F)(F)F)cc(C(F)(F)F)c3)CC2)CCCC1 [Compound 18, isobutyl 1-((4-((3,5-bis(trifluoromethyl)benzamido)methyl)piperidin-1-yl)methyl)cyclopentyl-carbamate] |
| 410 nM | 160 nM | CC(C)(C)OC(=O)NCCN1CCC(CNC(=O)c2cc(C(F)(F)F)cc(C(F)(F)F)c2)CC1 [Compound 35, tert-butyl 2-(4-((3,5-bis(trifluoromethyl)benzamido)methyl)piperidin-1-yl)ethylcarbamate] |
| 1870 nM | 2660 nM | O=C(NCC1CCN(CCNS(=O)(=O)C2CC2)CC1)c1cccc(Br)c1 [Compound 323, 3-bromo-N-((1-(2-(cyclopropanesulfonamido)ethyl)piperidin-4-yl)methyl)benzamide] |
| 430 nM | 400 nM | Cc1cc(F)cc(C(=O)NCC2CCN(CC(=O)NC3CCCC3)CC2)c1 [Compound 533, N-((1-(2-(cyclopentylamino)-2-oxoethyl)piperidin-4-yl)methyl)-3-fluoro-5-methylbenzamide] |
| < 300 nM | 90 nM | O=C(NCC1CCN(CCNC(=O)C2(C(F)(F)F)CCC2)CC1)c1cc(F)cc(C(F)(F)F)c1 [Compound 435, 3-fluoro-5-(trifluoromethyl)-N-((1-(2-(1-(trifluoromethyl)cyclobutanecarboxamido)ethyl)piperidin-4-yl)methyl)benzamide] |
| < 300 nM | 110 nM | CC1(NC(=O)CN2CCC(CNC(=O)c3cccc(OC(F)(F)F)c3)CC2)CCC1 [Compound 483, N-((1-(2-(1-methylcyclobutylamino)-2-oxoethyl)piperidin-4-yl)methyl)-3-(trifluoromethoxy)benzamide] |
| 1360 nM | 890 nM | O=C(NCC1CCN(CCN2C(=O)NC3(CCCCC3)C2=O)CC1)c1cc(F)cc(C(F)(F)F)c1 [Compound 568, N-((1-(2-(2,4-dioxo-1,3-diazaspiro[4.5]decan-3-yl)ethyl)piperidin-4-yl)methyl)-3-fluoro-5-(trifluoromethyl)benzamide] |
